Results as given in patent US7071194B2, “Method for improving respiratory function and inhibiting muscular degeneration” (priority 2000, dated 2006).
Values joined by “and” are separate entries in the source; they are usually repeats but may differ in a detail not shown here. Identical values can stand only once.

What was measured:
[1] = rats; cited from earlier work
[2] = test system: T8 SCI rats; assay: Respiratory function by head-out plethysmograph in conscious rats after T8 contusion SCI; assay type: in vivo, rat
Method: Female Sprague-Dawley rats (250–280 g and 360–390 g; Taconic, Germantown, N.Y.) were anesthetized with 4% chloral hydrate (360 mg/kg, i.p.). An incomplete spinal courd contusion injury was produced at T8 with a weight drop device (10 g×2.5 cm) as previously described (Wrathall et al., 1985). After SCI, manual expression of bladders was performed twice daily until a reflex bladder was established. Animal care also included housing the rats in pairs to reduce isolation-induced stress, maintaining ambient temperature at 22–25° C., and using highly absorbent bedding. No prophylactic antibiotics were given.
(§1) Experiments were conducted in unanesthetized, awake, spontaneously breathing rats at 24 hours prior to SCI, at 24 hours p.i. and weekly afterwards at 1,2,3, and 4 weeks p.i. (1) Acclimatization of the Animals. […] Animals were placed in the body cylinder of the plethysmograph (FIG. 1a) for 60 minutes per day for at least 5 days. […] (2) Non-Invasive Measurements of Respiratory Rate, Tidal Volume and Minute Ventilation. Non-invasive measurements of respiratory function in conscious rats were performed with a restrained head-out plethysmograph specially designed for rodents (BUXCO Electronics, Inc., Sharon, Conn.) (FIG. 1a). The plethymograph apparatus has a neck seal that prevents leakage of air from between the animal's neck and the plethymograph opening. Displacement of the thoracic wall produced by the animal's respiratory movements causes changes in the cylinder pressure, which results in air flowing across a pneumotachograph located on the wall of the cylinder. The pressure drop across the pneumotachograph is measured with a pressure transducer and is proportional to the flow. This signal is amplified and integrated into volume. From measurements of volume and flow, a computer and appropriate software provides respiratory parameters, such as respiratory rate (f), tidal volume (Vt), minute ventilation (Ve), peak inspiratory flow, peak expiratory flow, inspiratory time (Ti), expiratory time (Te), and accumulated volume. An additional opening on the wall of the box allows volume calibration by injecting and removing air from the box with a calibrated syringe.
(§2) The noise level in the laboratory was kept to a minimum in order not to startle the animals. Further, the animals were visually isolated from the investigators by means of a chamber made of an opaque material that surrounded and covered the front-end of the body plethysmograph (FIG. 1b). Baseline recordings lasted for 4 minutes. (3) Measurement of Ventilatory Response to Carbon Dioxide. For measurement of the ventilatory response to CO2, animals were exposed to air containing 7% CO2. The animals breathed from a funnel fixed in the front wall of a chamber made of an opaque material (FIG. 1b). The animals were exposed to the gas mixture containing 7% CO2 (mixed with 60% O2 and 33% N2) for 5 minutes with recording of respiratory activity for another 2 minutes (a total recording duration of 7 minutes).
(§3) The 5HT1A receptor antagonist, p-MPPI (RBI, Natick, Mass.) was also dissolved in 0.9% saline and given i.p. in a dose of 3 mg/kg (pH 7.4 and final volume of 0.5 ml). […] Vehicle solution (VEH) was 0.9% saline and also injected at i.p. (pH 7.4; volume: 0.5 ml/rat).
Baseline respiratory function was measured under room air ventilation and after the animal was stabilized inside a boy cylinder (FIGS. 1a and b) for 30 minutes at each time point prior to SCI and after injury. Immediately following the evaluation of baseline respiration, the animals were let to breathe air containing 7% CO2 for 7 minutes to monitor their ventilatory response to CO2 stimulus (Teng et al., 1998a and 1999).

[3] = test system: normal conscious rats; assay: Respiratory function by head-out plethysmograph in normal conscious rats; assay type: in vivo, rat
Method: as §1, §2, §3

[4] = test system: child with apneusis; details: buspirone orally 8 mg/day; cited from earlier work
[5] = test system: SOD1 mice; assay: Respiratory function (tidal volume, respiratory rate) in SOD1 mice, model of familial ALS; assay type: in vivo, mouse
Method: SOD1 mice are mutant mice which provide an animal model for an inherited form of ALS which is more commonly referred to as familial ALS. […] These parameters of respiratory function were subsequently reevaluated 2 minutes after drug treatment.

[6] = test system: mdx mutant mice; details: clenbuterol orally 1.0–1.5 mg/kg body weight/day, one year, cited from earlier work
[7] = 24 hours p.i., 8-OH-DPAT 250 μg/kg i.p., time-course study, n=3
[8] = 24 hours post SCI, pre-treated with p-MPPI 3 mg/kg i.p. 20 min before, 7% CO2 at 16′ & 17′ after 8-OH-DPAT
[9] = 24 hours post SCI, pre-treated with p-MPPI 3 mg/kg i.p. 20 min before, baseline, 3 & 4 min post 8-OH-DPAT
[10] = 24 hours post SCI, pre-treated with p-MPPI 3 mg/kg i.p. 20 min before, baseline, 9 & 10 min post 8-OH-DPAT
[11] = 24 h p.i., 7% CO2 at 24 min after 8-OH-DPAT 250 μg/kg i.p.
[12] = 24 h p.i., baseline (room air), 3 & 4 min post 8-OH-DPAT 250 μg/kg i.p.
[13] = 24 h p.i., baseline (room air), 21 & 22 min post 8-OH-DPAT 250 μg/kg i.p.
[14] = 7 d p.i., 7% CO2 at 31′ & 32′ post 8-OH-DPAT 250 μg/kg i.p.
[15] = 7 d p.i., baseline (room air), 3 & 4 min post 8-OH-DPAT 250 μg/kg i.p.
[16] = 7 d p.i., baseline (room air), 21 & 22 min post 8-OH-DPAT 250 μg/kg i.p.
[17] = 7% CO2 at 31′ & 32′ after 8-OH-DPAT 250 μg/kg i.p.
[18] = baseline (room air), 3 & 4 min post 8-OH-DPAT 250 μg/kg i.p.
[19] = baseline (room air), 11 & 12 min post 8-OH-DPAT 250 μg/kg i.p.
[20] = baseline (room air), 21 & 22 min post 8-OH-DPAT 250 μg/kg i.p.
[21] = 24 hours after SCI, 7% CO2 at 15 & 16 min after buspirone 1.5 mg/kg i.p.
[22] = 24 hours after SCI, baseline (room air), 3 & 4 min post buspirone 1.5 mg/kg i.p.
[23] = 24 hours after SCI, baseline (room air), 8 & 9 min post buspirone 1.5 mg/kg i.p.
[24] = 24 hours p.i., buspirone 1.5 mg/kg i.p.
[25] = buspirone 3.0 mg/kg i.p. or s.c. (FIGS. 6 and 7)

SMILES: CCCN(CCC)C1CCc2cccc(O)c2C1 (stereo not drawn) [8-OH-DPAT, 8-hydroxy-2-(di-n-propylamino)tetralin]
- systematic half life (T1/2) [1]: ~50 min
- effect on SCI-induced abnormal respiratory pattern ([2]; 24 hours after SCI, 8-OH-DPAT 250 μg/kg i.p.): promptly and successfully reversed the injury-triggered respiratory abnormalities
- duration of initial rise of f above p.i. levels ([2]; 24 hours p.i., 8-OH-DPAT 250 μg/kg i.p.): about 20 minutes
- time for which a single dose normalized ventilatory response to breathing 7% CO2 [2, 7]: more than 2 hours
- time for which improvement of baseline Ve (room air) was significant [2, 7]: 1 h
- Te (expiratory time) [2, 8]: 0.32 ± 0.05
- Ti (inspiratory time) [2, 8]: 0.19 ± 0.02
- Tv (tidal volume) [2, 8]: 1.15 ± 0.21↓ ml
- Ve (minute ventilation) [2, 8]: 143.1 ± 28.1↓ ml/min
- f (respiratory rate) [2, 8]: 126.8 ± 14.4 breaths/min
- Te (expiratory time) [2, 9]: 0.32 ± 0.08↓
- Ti (inspiratory time) [2, 9]: 0.32 ± 0.02
- Tv (tidal volume) [2, 9]: 0.85 ± 0.14↓ ml
- Ve (minute ventilation) [2, 9]: 82.5 ± 10.9↓ ml/min
- f (respiratory rate) [2, 9]: 99.4 ± 9.1↑ breaths/min
- Te (expiratory time) [2, 10]: 0.28 ± 0.02↓
- Ti (inspiratory time) [2, 10]: 0.31 ± 0.02
- Tv (tidal volume) [2, 10]: 0.82 ± 0.11↓ ml
- Ve (minute ventilation) [2, 10]: 88.3 ± 13.3↓ ml/min
- f (respiratory rate) [2, 10]: 107.5 ± 1.9↑ breaths/min
- Ti (inspiratory time) [2, 11]: 0.17 ± 0.01
- Tv (tidal volume) [2, 11]: 1.52 ± 0.08 mL
- Ve (minute ventilation) [2, 11]: 267.5 ± 21.8 mL/min
- f (respiratory rate) [2, 11]: 175.9 ± 9.7 breaths/min
- Te (expiratory time) [2, 12]: 0.25 ± 0.02↓
- Ti (inspiratory time) [2, 12]: 0.19 ± 0.01
- Tv (tidal volume) [2, 12]: 0.96 ± 0.08 mL
- Ve (minute ventilation) [2, 12]: 149.9 ± 15.6↑ ml/min
- f (respiratory rate) [2, 12]: 155.5 ± 8.7↑ breaths/min
- Te (expiratory time) [2, 13]: 0.47 ± 0.02
- Ti (inspiratory time) [2, 13]: 0.18 ± 0.01
- Tv (tidal volume) [2, 13]: 0.80 ± 0.06 mL
- Ve (minute ventilation) [2, 13]: 81.3 ± 10.9 mL/min
- f (respiratory rate) [2, 13]: 98.5±3.7 breaths/min and 98.5 ± 5.18 breaths/min
- effect on SCI-induced abnormal respiratory pattern ([2]; 7 days p.i., 8-OH-DPAT 250 μg/kg i.p.): restored this abnormal pattern of breathing to normal
- Te (expiratory time) [2, 14]: 0.17 ± 0.01
- Ti (inspiratory time) [2, 14]: 0.16 ± 0.01
- Tv (tidal volume) [2, 14]: 1.79 ± 0.35 mL
- Ve (minute ventilation) [2, 14]: 327.2 ± 53.7↑ ml/min
- f (respiratory rate) [2, 14]: 184.6 ± 6.6↑ breaths/min
- Te (expiratory time) [2, 15]: 0.26 ± 0.03↓
- Ti (inspiratory time) [2, 15]: 0.16 ± 0.01
- Tv (tidal volume) [2, 15]: 1.11 ± 0.05 mL
- Ve (minute ventilation) [2, 15]: 172.1 ± 17.1↑ ml/min
- f (respiratory rate) [2, 15]: 155.2 ± 8.9↑ breaths/min
- Te (expiratory time) [2, 16]: 0.32 ± 0.02↓
- Ti (inspiratory time) [2, 16]: 0.15 ± 0.01
- Tv (tidal volume) [2, 16]: 0.79 ± 0.04 mL
- Ve (minute ventilation) [2, 16]: 103.0 ± 2.1↑ ml/min
- f (respiratory rate) [2, 16]: 131.7 ± 7.7↑ breaths/min
- Te (expiratory time) [3, 17]: 0.23 ± 0.03
- Ti (inspiratory time) [3, 17]: 0.19 ± 0.01
- Tv (tidal volume) [3, 17]: 1.50 ± 0.14 mL
- Ve (minute ventilation) [3, 17]: 239.3 ± 48.9 mL/min
- f (respiratory rate) [3, 17]: 155.6 ± 18.5 breaths/min
- duration of increase in baseline Vt ([3]; 8-OH-DPAT 250 μg/kg i.p.): 4 min
- duration of stimulating effect on f ([3]; 8-OH-DPAT 250 μg/kg i.p., to last minute of observation): ≥ 23 min
- Te (expiratory time) [3, 18]: 0.25 ± 0.09↓
- Ti (inspiratory time) [3, 18]: 0.19 ± 0.04
- Tv (tidal volume) [3, 18]: 1.14 ± 0.08↑ ml
- Ve (minute ventilation) [3, 18]: 198.6 ± 32.9↑ ml/min
- f (respiratory rate) [3, 18]: 177.5 ± 36.2↑ breaths/min
- Te (expiratory time) [3, 19]: 0.30 ± 0.07↓
- Ti (inspiratory time) [3, 19]: 0.16 ± 0.02
- Tv (tidal volume) [3, 19]: 0.92 ± 0.05 mL
- Ve (minute ventilation) [3, 19]: 138.6 ± 27.6↑ ml/min
- f (respiratory rate) [3, 19]: 149.8 ± 26.5↑ breaths/min
- Te (expiratory time) [3, 20]: 0.41 ± 0.08↓
- Ti (inspiratory time) [3, 20]: 0.18 ± 0.02
- Tv (tidal volume) [3, 20]: 0.84 ± 0.02 mL
- Ve (minute ventilation) [3, 20]: 112.9 ± 15.2↑ ml/min
- f (respiratory rate) [3, 20]: 134.4 ± 21.2↑ breaths/min
- ventilatory response to 7% CO2 challenge ([3]; starting at 24 minutes after 8-OH-DPAT): did not significantly alter

SMILES: O=C1CC2(CCCC2)CC(=O)N1CCCCN1CCN(c2ncccn2)CC1 [buspirone]
- apneusis [4]: reverses apneusis
- Te (expiratory time) [2, 21]: 0.21 ± 0.03
- Ti (inspiratory time) [2, 21]: 0.17 ± 0.01
- Tv (tidal volume) [2, 21]: 1.46 ± 0.14 mL
- Ve (minute ventilation) [2, 21]: 240.9 ± 44.8 mL/min
- Te (expiratory time) [2, 22]: 0.27 ± 0.03↑
- Ti (inspiratory time) [2, 22]: 0.19 ± 0.01
- Tv (tidal volume) [2, 22]: 1.17 ± 0.13 mL
- Ve (minute ventilation) [2, 22]: 171.3 ± 30.1 mL/min
- Te (expiratory time) [2, 23]: 0.40 ± 0.05
- Ti (inspiratory time) [2, 23]: 0.20 ± 0.03
- Ve (minute ventilation) [2, 23]: 101.8 ± 11.4 mL/min
- SCI reduced Vt values after treatment [2, 24]: levels indiscenible from pre-injury readings
- duration of effect on Vt (printed Bt) [2, 24]: up to 9 minutes
- effect on abnormal respiratory function resulting from T8 SCI [2, 24]: reversed the abnormal respiratory function
- respiratory frequency [5, 25]: reduces
- tidal volume [5, 25]: significantly increases
- respiratory function (tidal volume, respiratory rate) ([5]; buspirone 3.0 mg/kg subcutaneous, 2 minutes after treatment): significantly improved

SMILES: CC(C)(C)NCC(O)c1cc(Cl)c(N)c(Cl)c1 (stereo not drawn) [clenbuterol]
- increase in myosin concentration of mdx diaphram (DIA) ([6]; mdx mice): 22%
- soleus (SOL) weight and SOL muscle weight to body weight ratio ([6]; normal control and mdx mice): significantly increase
